Experimental findings from ChEMBL document CHEMBL1201862, “PubChem BioAssay data set” (2004) are described below.

Activity calls are given as the source filed them. A value given as a limit tells only on which side of the number the result lay.

In test [1] the test system is Streptococcus sp. 'group A'. Briefly: Streptococcus pyogenes SK(-)GAS viability under kanamycin – luminescence, BacTiterGlo, confirmation, counter-screen for streptokinase expression inhibitor project, dose response (AID 1900). In kind it is functional, organism-based. For orientation: Counterscreens check selectivity or assay interference.
For test [2], the target named is T1, Streptokinase A (Streptococcus pyogenes serotype M1, UniProt P10520).
T1 sequence (P10520 whole entry): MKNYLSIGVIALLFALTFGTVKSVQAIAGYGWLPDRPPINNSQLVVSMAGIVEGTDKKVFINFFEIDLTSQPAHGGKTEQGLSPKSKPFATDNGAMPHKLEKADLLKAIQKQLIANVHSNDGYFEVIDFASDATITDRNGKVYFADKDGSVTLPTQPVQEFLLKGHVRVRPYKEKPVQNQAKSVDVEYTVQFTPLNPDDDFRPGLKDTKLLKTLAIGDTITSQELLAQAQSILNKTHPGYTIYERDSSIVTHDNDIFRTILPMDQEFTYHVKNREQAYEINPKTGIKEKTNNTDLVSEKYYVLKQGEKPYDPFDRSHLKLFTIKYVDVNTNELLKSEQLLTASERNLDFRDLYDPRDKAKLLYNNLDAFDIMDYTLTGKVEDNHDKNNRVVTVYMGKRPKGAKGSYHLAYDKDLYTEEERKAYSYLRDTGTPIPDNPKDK
The test is described as follows: viability-normalized secreted streptokinase activity reduction – plasminogen activation absorbance, OD405, dose response (AID 1914).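 Further: secreted streptokinase activity via plasminogen activation per viability signal from cell pellet.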 In kind it is functional, Streptococcus pyogenes M1 GAS.

Test [3] deals with Streptococcus. Briefly: GAS UMAA2166 growth inhibition – luminescence, BacTiterGlo, counter-screen for streptokinase expression inhibitor project, dose response (AID 1915).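 Further: potency for reduction of bacterial viability or growth.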 In kind it is functional, organism-based.
The target in test [4] is Cytochrome P450 3A4 (Homo sapiens, UniProt P08684).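 Further: CYP3A4 tested as one member of a cytochrome P450 panel screen.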
Sequence of Cytochrome P450 3A4 (P08684 whole entry): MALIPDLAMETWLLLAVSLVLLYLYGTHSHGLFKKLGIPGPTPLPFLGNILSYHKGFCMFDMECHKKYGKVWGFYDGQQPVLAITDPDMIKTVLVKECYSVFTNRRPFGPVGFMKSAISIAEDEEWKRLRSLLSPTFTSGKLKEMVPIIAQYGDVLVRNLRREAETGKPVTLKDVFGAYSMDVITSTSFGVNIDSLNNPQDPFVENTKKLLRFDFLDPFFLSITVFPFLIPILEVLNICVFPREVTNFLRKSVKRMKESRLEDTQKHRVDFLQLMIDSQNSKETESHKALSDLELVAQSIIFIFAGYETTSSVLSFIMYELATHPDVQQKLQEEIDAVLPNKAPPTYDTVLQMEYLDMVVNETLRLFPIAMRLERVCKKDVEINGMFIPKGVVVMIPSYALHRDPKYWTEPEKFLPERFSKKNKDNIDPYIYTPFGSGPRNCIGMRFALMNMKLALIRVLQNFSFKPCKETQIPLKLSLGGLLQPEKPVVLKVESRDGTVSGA
The target in test [5] is T2, Corticotropin-releasing factor receptor 2/Corticotropin-releasing factor-binding protein (Homo sapiens, UniProt P24387+Q13324).
T2 sequence (Q13324 whole entry): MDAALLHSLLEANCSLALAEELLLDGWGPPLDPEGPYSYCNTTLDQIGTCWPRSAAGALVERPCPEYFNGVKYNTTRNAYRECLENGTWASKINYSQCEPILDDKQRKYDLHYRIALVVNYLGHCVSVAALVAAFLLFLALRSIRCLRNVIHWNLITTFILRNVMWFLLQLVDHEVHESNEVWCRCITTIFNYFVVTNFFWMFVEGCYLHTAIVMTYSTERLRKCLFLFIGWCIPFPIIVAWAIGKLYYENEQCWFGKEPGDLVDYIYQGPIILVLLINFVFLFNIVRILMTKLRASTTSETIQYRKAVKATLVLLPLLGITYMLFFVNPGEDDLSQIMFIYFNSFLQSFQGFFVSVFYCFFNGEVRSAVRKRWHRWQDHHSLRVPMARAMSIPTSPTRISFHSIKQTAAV
T2 sequence (P24387 whole entry): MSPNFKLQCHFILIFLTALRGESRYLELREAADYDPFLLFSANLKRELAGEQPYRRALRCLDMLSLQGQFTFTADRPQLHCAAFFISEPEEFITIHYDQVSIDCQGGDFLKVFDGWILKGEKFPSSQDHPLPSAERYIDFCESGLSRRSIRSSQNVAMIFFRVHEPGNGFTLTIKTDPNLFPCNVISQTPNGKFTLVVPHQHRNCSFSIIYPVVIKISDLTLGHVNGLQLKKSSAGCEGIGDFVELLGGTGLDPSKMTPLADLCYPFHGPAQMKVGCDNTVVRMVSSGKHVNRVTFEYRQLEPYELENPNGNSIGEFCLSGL
The test is described as follows: activators of CRF receptor 2 with binding protein – uHTS hits, confirmation (AID 602473). The test is classed as functional. The note with it: read-out: EC50_Mean.

Test [6] addresses Cytochrome P450 2C9 (Homo sapiens, UniProt P11712).
In test [7] the target is Cytochrome P450 2C19 (Homo sapiens, UniProt P33261). Briefly: Cytochrome panel assay with activity outcomes. Panel member name: p450-cyp2c19 Compounds with AC50 equal or less than 10 uM are considered active. The test is classed as functional. The note with it: read-out: AC50.
Sequence of Cytochrome P450 2C19 (P33261 whole entry): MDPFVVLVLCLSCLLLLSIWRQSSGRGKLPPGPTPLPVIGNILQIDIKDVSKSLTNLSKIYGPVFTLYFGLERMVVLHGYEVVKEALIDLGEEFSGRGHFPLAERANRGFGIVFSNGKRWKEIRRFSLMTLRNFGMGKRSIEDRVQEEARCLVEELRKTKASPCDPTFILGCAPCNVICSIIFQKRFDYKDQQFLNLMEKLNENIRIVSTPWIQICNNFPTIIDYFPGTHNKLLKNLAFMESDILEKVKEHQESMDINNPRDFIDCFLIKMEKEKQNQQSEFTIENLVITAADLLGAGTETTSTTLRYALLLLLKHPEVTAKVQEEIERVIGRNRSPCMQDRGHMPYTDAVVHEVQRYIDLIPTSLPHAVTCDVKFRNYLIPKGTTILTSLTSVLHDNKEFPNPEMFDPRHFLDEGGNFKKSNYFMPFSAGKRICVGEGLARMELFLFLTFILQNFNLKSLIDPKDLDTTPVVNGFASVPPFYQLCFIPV
The nature of test [8]: Trypanosoma cruzi growth suppression in host cells – NIH3T3 host cells, beta-gal luminescence, confirmation (AID 2044).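 Further: intracellular parasites grown in NIH/3T3 mouse fibroblasts as host cells; luminescent beta-galactosidase reporter signal from transgenic T. cruzi replicating inside host cells; inhibitors lower the luminescence signal.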 In kind it is functional, cell-based.
Test [9] can be described thus: NIH3T3 cell viability loss – ATP luminescence, mouse fibroblasts, counter-screen, dose response (AID 2010).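 Further: cells exposed to compound for about 90 hours before reading.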 The test is classed as functional, cell-based.
Test [10] has as its target Paired box protein Pax-8 (Homo sapiens, UniProt Q06710). The test is described as follows: PAX8 transcriptional activity inhibition in RMG-I – RMG-I cells, luciferase, cherry-pick, dose response (AID 687027).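 Further: luciferase reporter driven by Pax8 target thyroperoxidase promoter measured by SteadyGlo luminescence.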 The test is classed as functional, cell-based.

Sequence of Paired box protein Pax-8 (Q06710 whole entry): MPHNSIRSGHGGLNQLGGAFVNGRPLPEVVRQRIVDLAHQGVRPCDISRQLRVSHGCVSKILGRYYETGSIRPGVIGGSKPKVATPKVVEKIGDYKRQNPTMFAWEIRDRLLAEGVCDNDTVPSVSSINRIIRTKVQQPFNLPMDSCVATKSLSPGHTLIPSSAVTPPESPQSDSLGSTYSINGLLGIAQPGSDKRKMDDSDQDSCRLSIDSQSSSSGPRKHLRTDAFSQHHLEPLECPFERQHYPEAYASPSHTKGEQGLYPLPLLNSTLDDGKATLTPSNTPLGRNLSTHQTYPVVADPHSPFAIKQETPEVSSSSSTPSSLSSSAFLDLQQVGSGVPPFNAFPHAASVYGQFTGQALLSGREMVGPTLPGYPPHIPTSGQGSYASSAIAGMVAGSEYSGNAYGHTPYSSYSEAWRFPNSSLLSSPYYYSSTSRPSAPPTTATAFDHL
Sequence of Cytochrome P450 2C9 (P11712 whole entry): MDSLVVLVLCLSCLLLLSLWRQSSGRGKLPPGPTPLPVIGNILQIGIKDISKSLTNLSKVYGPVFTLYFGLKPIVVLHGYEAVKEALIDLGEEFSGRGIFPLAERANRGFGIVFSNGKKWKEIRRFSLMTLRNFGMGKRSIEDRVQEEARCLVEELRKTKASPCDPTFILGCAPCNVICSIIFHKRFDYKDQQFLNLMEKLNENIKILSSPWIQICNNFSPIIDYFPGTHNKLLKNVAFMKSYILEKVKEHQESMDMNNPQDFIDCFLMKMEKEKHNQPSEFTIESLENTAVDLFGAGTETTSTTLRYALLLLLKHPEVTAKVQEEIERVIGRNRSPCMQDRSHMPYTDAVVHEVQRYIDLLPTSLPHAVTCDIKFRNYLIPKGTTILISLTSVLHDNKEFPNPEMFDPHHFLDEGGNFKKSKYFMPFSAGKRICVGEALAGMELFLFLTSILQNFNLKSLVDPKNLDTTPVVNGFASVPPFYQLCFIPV

Regarding `CN(C(=O)Cc1c(C(=O)O)n(C)c2ccccc12)c1ccc(F)cc1`, the EC50 in [1], in [2] and in [3] was > 150 µM (not active) each time. For `Cc1noc(C)c1-c1nccc(N(C)Cc2ccco2)n1`, in test [4], the AC50 is 25.1 µM (inconclusive). `COc1ccc2c(CC#N)c[nH]c2c1`: the EC50 in test [5] was > 53 µM (inactive). On to `COc1ccc(S(=O)(=O)N2Cc3ccccc3CC2C(=O)Nc2nccs2)cc1` (centres undefined), for which the half-maximal activity concentration (AC50) in test [4] is 3.55 µM (active).

Take `Cn1cccc1C(=O)N1CCC2(CCCN(c3ccncc3)C2)CC1`: in [6], the AC50 is 25.1 µM (inconclusive). On to `CCCCCCC(=O)NN/C=C1/C(=O)NC(=S)N(CCCC)C1=O`, for which the EC50 in test [1] is 5.51 µM (active); in test [2], > 150 µM (not active); in test [3], 49.3 µM (active). The like results for `CCOC(=O)C1=C(N)c2ccccc2CC1C1CCCC1` (centres undefined) were, in that order, 7.81 µM (active), 19.3 µM (active) and 11.9 µM (active).

`CCOC(=O)C(C)n1cnc2c(oc3ccccc32)c1=O` (centres undefined): the values for the AC50 in test [7] and in test [6] were 31.6 µM (inconclusive) and 28.2 µM (inconclusive), respectively. For the compound `Cc1cc(Oc2ccc(Cl)cc2)nc(-c2ccccc2O)n1`, the values for the EC50 in test [1], in [2] and in test [3] were > 150 µM (not active), 14.6 µM (active) and > 150 µM (not active), respectively.

Turning to `CCC1CCCCN1C(=O)COC(=O)COc1ccc(Br)cc1` (centres undefined), the EC50 in test [5] was > 53 µM (inactive). In the case of `CN=C(S)Nc1ccc2nc(C)c(C)nc2c1`, the AC50 was 39.8 µM (inconclusive) in test [7] and 17.8 µM (inconclusive) in test [4]. As for `O=S(=O)(NC(=NCc1ccccc1)c1ccccc1)c1ccc(Br)cc1`, the EC50 in test [1] is > 150 µM (not active); in test [2], 33.4 µM (active); in [3] it was > 150 µM (not active).

As to `C=CCNC(=O)c1cccn1-c1ccsc1C(=O)OC`, in [4], the AC50 was 14.1 µM (inconclusive).

Turning to `Fc1ccc(CCNCc2ccc(Cl)c(Cl)c2)cc1`, the EC50 in test [8] was 0.122 µM (active); in test [9], > 30 µM (not active). Also, the AC50 in test [6] is 17.8 µM (inconclusive). As to `C[C@H](CO)N1C[C@H](C)[C@H](CN(C)Cc2ccc(Cl)c(Cl)c2)OCCCC[C@H](C)Oc2ccc(NC(=O)NC3CCCCC3)cc2C1=O`, the AC50 in [10] is 11.7 µM (active). For the compound `O=C(C/C=N/OCc1ccc(F)cc1Cl)c1cnc(-c2ccccc2)s1`, the AC50 in test [4] is 14.1 µM (inconclusive). For `Oc1ccc(C[C@H]2CNC(=S)N2CC2CCCN2C[C@H](Cc2ccc(O)cc2)N2C[C@H](Cc3ccccc3)N(CC3CCCCCC3)C2=S)cc1` (some centres undefined), the AC50 in test [10] was 9.86 µM (active).

For `CC(C)(C)[Si](C)(C)c1c2c(nc3ccc(OCc4ccccc4)cc13)-c1cccc(=O)n1C2`, the AC50 in test [6] was 20 µM (inconclusive). For the compound `CCc1ccc(S(=O)(=O)NCC2(N3CCOCC3)CCCCC2)cc1`, in test [5], the EC50 was 6.83 µM (active).

In the case of `CCc1ccccc1N1CN(Cc2ccco2)CNC1=S`, in [5], the EC50 is > 53 µM (inactive).

Take `O=C(CCc1ccc(S(=O)(=O)NCc2ccccc2)cc1)NCc1cccnc1`: the AC50 in test [10] is 41.5 µM (active). As to `OCCNc1ncnc2nc[nH]c12`, the AC50 in [4] is 0.251 µM (inconclusive). For `Cc1ncsc1CCCl` [CLOMETHIAZOLE], in test [6], the AC50 was 2.51 µM (inconclusive).

`Cc1ccc(NS(=O)(=O)c2cc([N+](=O)[O-])ccc2NN=C(S)Nc2cccc(Cl)c2)c(C)c1`: the values for the EC50 in test [1] and in [3] were 0.833 µM (active) and 2.37 µM (active), respectively. Consider `COc1ccc(C(=O)Nc2scc(-c3ccc(Cl)cc3Cl)c2C(N)=O)cc1`, for which, in [4], the AC50 was 28.2 µM (inconclusive). Turning to `Cc1ccc(S(=O)(=O)Nc2ccc3c(c2)C(=O)N([C@@H](C)CO)C[C@@H](C)[C@@H](CN(C)S(=O)(=O)c2ccc(Cl)cc2)OCCCC[C@@H](C)O3)cc1`, the AC50 in test [10] was 10.4 µM (active). As to `N#Cc1nc(NCC(F)F)nc(Nc2cc(F)cc(F)c2)n1`, in test [10], the AC50 was 5.01 µM (active). For the compound `CCOC(=O)NC1(C(F)(F)F)C(=O)N(Cc2ccccc2)C2=C1C(=O)CC(C)(C)C2` (centres undefined), in test [6], the AC50 was 28.2 µM (inconclusive). With `C=CCC[C@H](Cc1ccc(F)cc1)C(=O)OC[C@H](Cc1c[nH]c2ccccc12)NC(=O)[C@@H](CC=C)CC(=O)NCCO`, in [5], the EC50 was 12.8 µM (active). On to `COc1cc(N)c(Cl)cc1C(=O)CCC1CCN(CCNS(C)(=O)=O)CC1`, for which the AC50 in test [4] was 15.8 µM (inconclusive).

With `Cc1ccc(S(=O)(=O)NC2=NC(=O)/C(=C/c3cccnc3)S2)cc1`, in test [4], the AC50 is 0.891 µM (inconclusive).

With `Cc1ccc(C)c(CSC2=NCCN2C(=O)Cc2ccc([N+](=O)[O-])cc2)c1`, the AC50 in test [10] was 26.3 µM (active).

Take `COC(=O)[C@@]1(Cc2ccc(OC)cc2)[C@H]2c3cc(C(=O)N4CCCC4)n(CCN4CCOCC4)c3C[C@H]2CN1C(=O)c1ccccc1`: the half-maximal activity concentration (AC50) in test [7] and in test [6] was 31.6 µM (inconclusive) each time. Take `CC(=O)N1CCC[C@@]2(CCN(c3ccncc3)C2)C1`: in test [4], the half-maximal activity concentration (AC50) was 25.1 µM (inconclusive). Consider `N#Cc1cccc(-c2nc3cnc(N4CCNCC4)nc3n(C3CC3)c2=O)c1`, for which the AC50 in test [4] was 20 µM (inconclusive). Consider `COc1cccc(-c2cc(C(=O)NCC3CCCO3)c3cc(Br)cc(C)c3n2)c1` (centres undefined), for which the EC50 in [1], in test [2] and in test [3] was > 150 µM (not active) each time.

For the compound `CCCC(=O)Nc1nc(-c2ccc3c(c2)CCN3S(C)(=O)=O)cs1`, in test [4], the AC50 is 7.94 µM (inconclusive). The same measure, in the same setting: with `Cc1nc2cnc(N3CCOCC3)nc2n(C2CC2)c1=O` the figure was 15.8 µM (inconclusive). On to `CC[C@H](C(=O)c1cccs1)C(O)(C(F)(F)F)C(F)(F)F`, for which the AC50 in test [7] is 2 µM (inconclusive); in test [6] it was 7.94 µM (inconclusive). On to `COc1cc(-c2cnc3c(NC=O)cc(-c4ccccc4)cn23)cc(OC)c1OC`, for which the AC50 in test [10] is 2.79 µM (active).

Regarding `COc1ccc(NC(=O)C(OC(=O)c2cnc(C)cn2)c2ccccc2)cc1Cl` (centres undefined), the EC50 in test [1] is 4.66 µM (active); in [2] it was > 150 µM (not active); in [3] it was > 150 µM (not active). For `O=c1c(-c2ccc(F)cc2)nc2cnc(N3CCOCC3)nc2n1Cc1cccs1`, the AC50 in test [4] is 15.8 µM (inconclusive). Consider `Cc1noc(C)c1C(=O)N1CCC2(CCCN(Cc3nccs3)C2)CC1`, for which, in test [4], the half-maximal activity concentration (AC50) was 12.6 µM (inconclusive).

As a reminder, the AC50 is the concentration at which the activity in the assay is half-maximal.
